Reference: PubChem BioAssay (NCI)
“And” between values parts separate entries of the source, which are not always exact repeats. Identical values can stand only once.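 Following 48 hours of exposure in 96-well plates, responses at five concentrations were used to interpolate endpoints linearly. GI50 marks 50% less growth. Definition used: TGI = concentration required for complete inhibition of growth.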

Tests used:
Assay in all cases: NCI tumour cell line growth inhibition, 48 h
[1] = system: HCT-116 colon
[2] = system: MDA-MB-231 breast
[3] = system: T-47D breast
[4] = system: OVCAR-4 ovarian
[5] = system: DMS 114 small cell lung
[6] = system: K-562 leukemia
[7] = system: MCF7 breast
[8] = system: M14 melanoma
[9] = system: A498 renal
[10] = system: NCI/ADR-RES ovarian
[11] = system: SN12C renal
[12] = system: SK-OV-3 ovarian
[13] = system: SF-295 CNS
[14] = system: HOP-18 NSCLC
[15] = system: DLD-1 colon
[16] = system: SN12K1 renal
[17] = system: A549 NSCLC
[18] = system: XF 498 CNS
[19] = system: DU-145 prostate
[20] = system: SK-MEL-2 melanoma
[21] = system: TK-10 renal
[22] = system: OVCAR-3 ovarian
[23] = system: SNB-19 CNS
[24] = system: BT-549 breast
[25] = system: SK-MEL-28 melanoma
[26] = system: MOLT-4 leukemia
[27] = system: RPMI-8226 leukemia
[28] = system: SNB-75 CNS
[29] = system: LOX IMVI melanoma
[30] = system: NCI-H460 lung
[31] = system: ACHN renal
[32] = system: EKVX NSCLC
[33] = system: KM20L2 colon
[34] = system: M19-MEL melanoma
[35] = system: RXF 393 renal
[36] = system: IGROV1 ovarian
[37] = system: SW-620 colon
[38] = system: SNB-78 CNS
[39] = system: HS 578T breast
[40] = system: HT29 colon
[41] = system: 786-0 renal
[42] = system: OVCAR-8 ovarian
[43] = system: CCRF-CEM leukemia
[44] = system: SK-MEL-5 melanoma
[45] = system: P388 leukemia
[46] = system: COLO 205 colon
[47] = system: DMS 273 small cell lung
[48] = system: MDA-N
[49] = system: KM12 colon
[50] = system: HL-60(TB) leukemia
[51] = system: HOP-62 NSCLC
[52] = system: NCI-H23 lung
[53] = system: HOP-92 NSCLC
[54] = system: HCT-15 colon
[55] = system: SF-268 CNS
[56] = system: HCC-2998 colon
[57] = system: MDA-MB-435
[58] = system: NCI-H522 lung
[59] = system: U251 CNS
[60] = system: NCI-H226 lung
[61] = system: UACC-62 melanoma
[62] = system: P388/ADR leukemia
[63] = system: MALME-3M melanoma
[64] = system: OVCAR-5 ovarian
[65] = system: UO-31 renal
[66] = system: UACC-257 melanoma
[67] = system: SF-539 CNS
[68] = system: SR leukemia
[69] = system: PC-3 prostate

## COC1C(O)C(C)OC(OC2C(Oc3cccc4c(O)c5c(=O)oc6ccc(C)c7c(=O)oc(c34)c5c67)OC(C)C(O)C2O)C1O (stereo not given)
[1]
  TGI: 3.4 µM and 5.71 µM
[2]
  TGI: 8.67 µM
[3]
  TGI: 7.66 µM
[4]
  GI50: 11.5 µM
  TGI: 35.1 µM and 18.3 µM
[5]
  TGI: 4.03 µM
[6]
  TGI: 19.3 µM and 8.81 µM
[7]
  GI50: 1.61 µM
  TGI: 21.6 µM and 6.89 µM
[8]
  TGI: 14.8 µM
[9]
  GI50: 1.22 µM
  TGI: 4.04 µM and 5.15 µM
[10]
  GI50: 26.1 µM
  TGI: 117 µM
[11]
  GI50: 1.41 µM
  TGI: 7.74 µM and 20.9 µM
[12]
  GI50: 3.66 µM
  TGI: 17.2 µM and 23.3 µM
[13]
  GI50: 1.12 µM
  TGI: 11.9 µM and 4.21 µM
[14]
  TGI: 8.35 µM
[15]
  TGI: 14.9 µM
[16]
  TGI: 3.5 µM
[17]
  GI50: 5.48 µM
  TGI: 53 µM and 40.4 µM
[18]
  TGI: 3.37 µM
[19]
  TGI: 53.6 µM
[20]
  GI50: 0.695 µM
  TGI: 1.93 µM and 2.56 µM
[21]
  TGI: 21 µM
[22]
  TGI: 10.7 µM and 8.63 µM
[23]
  GI50: 0.632 µM and 1.21 µM
  TGI: 26.6 µM and 14.4 µM
[24]
  TGI: 7.83 µM
[25]
  GI50: 1.87 µM
  TGI: 6.85 µM and 4.93 µM
[26]
  GI50: 0.647 µM
  TGI: 14.9 µM and 2.23 µM
[27]
  GI50: 1.25 µM
  TGI: 15.9 µM and 6.88 µM
[28]
  GI50: 3.15 µM
  TGI: 12.6 µM and 7.14 µM
[29]
  GI50: 0.688 µM
  TGI: 7.55 µM and 10.5 µM
[30]
  TGI: 9.07 µM and 13.1 µM
[31]
  TGI: 46.1 µM
[32]
  GI50: 3.81 µM
  TGI: 15.2 µM and 4.85 µM
[33]
  TGI: 18.5 µM
[34]
  TGI: 4.39 µM
[35]
  GI50: 0.536 µM
  TGI: 2.6 µM and 3.37 µM
[36]
  GI50: 3.08 µM
  TGI: > 69.9 µM and 12.9 µM
[37]
  GI50: 1.28 µM
  TGI: 63.8 µM and 20.5 µM
[38]
  TGI: 19.3 µM
[39]
  TGI: 20.4 µM
[40]
  GI50: 1.94 µM
  TGI: 13.8 µM
[41]
  TGI: 4.57 µM
[42]
  GI50: 1.65 µM
  TGI: 52.8 µM and 5.65 µM
[43]
  TGI: 14.4 µM and 5.06 µM
[44]
  GI50: 1.91 µM
  TGI: 6.38 µM and 4.19 µM
[45]
  TGI: 3.48 µM
[46]
  GI50: 1.74 µM
  TGI: 16 µM and 6.3 µM
[47]
  TGI: 9.1 µM
[48]
  TGI: 6.88 µM
[49]
  GI50: 2.17 µM
  TGI: 16.6 µM and 8.05 µM
[50]
  GI50: 4.08 µM
  TGI: 27.4 µM and 6.95 µM
[51]
  GI50: 1.01 µM
  TGI: 6.38 µM and 5.29 µM
[52]
  GI50: 1.93 µM
  TGI: 9.28 µM and 4.6 µM
[53]
  GI50: 2.43 µM
[54]
  TGI: 63.6 µM and 34 µM
[55]
  GI50: 1.01 µM
  TGI: 11.1 µM and 12.6 µM
[56]
  GI50: 1.1 µM
  TGI: 4.56 µM and 7.81 µM
[57]
  TGI: 8.29 µM
[58]
  GI50: 0.747 µM
  TGI: 2.74 µM and 3.67 µM
[59]
  GI50: 0.543 µM
  TGI: 11.9 µM
[60]
  GI50: 1.66 µM
  TGI: 5.15 µM and 4.17 µM
[61]
  GI50: 1.35 µM
  TGI: 3.26 µM and 3.56 µM
[62]
  TGI: 85 µM
[63]
  GI50: 1.83 µM
  TGI: 5.22 µM and 5.75 µM
[64]
  GI50: 6.91 µM
  TGI: 30.8 µM and 15.6 µM
[65]
  TGI: 36.5 µM and 18.9 µM
[66]
  TGI: 5.85 µM and 5.46 µM
[67]
  GI50: 1.19 µM
  TGI: 5.52 µM and 5.55 µM
[68]
  TGI: 6.47 µM
[69]
  TGI: 17.8 µM
